The values below come from US20100216761A1, “NOVEL AZETIDINONES USEFUL AS INHIBITORS OF ELASTASE” (priority 2007, published 2010).

The nature of data set [1]: Liver microsome stability in 4 species: human. As to conditions: substrate 0.5 uM, microsome 0.25 mg/mL. The data set is classed as in vitro ADME. Here is the method:
In a separate experiment as exemplified in Table 3, the stability of the current Example 1 and the comparator Compound #290 in incubations with microsome preparations from 4 different species were also determined (Note 5).
X. S. Tong, et. al., J. of Chromatography, 2006, 833, 165.

In a further data set the target is T1, CYP2C9 (Homo sapiens, UniProt P11712).
T1 construct: host or cells: human liver microsomes or recombinant P450 microsomes
T1 sequence (P11712 whole entry): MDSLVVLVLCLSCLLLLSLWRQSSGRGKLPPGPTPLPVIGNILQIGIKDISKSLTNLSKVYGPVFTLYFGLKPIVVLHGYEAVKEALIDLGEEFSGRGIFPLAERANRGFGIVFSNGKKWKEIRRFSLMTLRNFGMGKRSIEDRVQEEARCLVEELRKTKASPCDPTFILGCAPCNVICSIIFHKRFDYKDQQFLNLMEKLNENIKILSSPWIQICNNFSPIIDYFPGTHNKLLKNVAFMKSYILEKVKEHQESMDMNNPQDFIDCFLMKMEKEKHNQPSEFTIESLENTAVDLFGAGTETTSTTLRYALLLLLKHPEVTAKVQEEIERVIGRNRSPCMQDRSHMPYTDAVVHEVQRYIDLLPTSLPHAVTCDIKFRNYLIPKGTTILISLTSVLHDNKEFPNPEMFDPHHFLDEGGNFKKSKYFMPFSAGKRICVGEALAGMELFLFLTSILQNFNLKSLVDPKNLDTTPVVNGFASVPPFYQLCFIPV
As to the kind of experiment: CYP-P450 reversible inhibition, 2C9. The data set is classed as in vitro ADME. The following applies: probe fluorogenic probe (not named); human liver microsomes or recombinant P450 microsomes; fluorescent probe. Here is the method:
This assay measured the reversible inhibition of the test compounds against three cytochrome P450 isozymes (CYP-P450 3A4, 2C9 and 2D6) in an automated screening formate. […] Cumene hydroperoxide, NADPH or NADPH regenerating systems can be used as electron donors for the P450 catalytic cycle. Control incubations containing no inhibitor or no fluorescent probe were performed to evaluate the 100% and 0% activities, respectively. The activity of P450 enzyme was evaluated in the presence of 0.137, 0.273, 0.547, 1.094, 2.188, 4.375, 8.750, 17.5, 35.0 and 70.0 μM concentrations of the test compounds. Inhibition curves were generated and IC50 values were calculated for each tested compound using standard techniques.
Background: Microsomes from liver hold many membrane-bound enzymes, among them those of drug oxidation.

A short description of data set [2]: Rat 7 day oral dose limiting toxicity assessment. The data set is classed as in vivo. The following applies: for mortality: 750 mpk dose group, n=5 per group; for NO Effect Level (NOEL): in vivo, po, 7 days; for Dose limiting toxicity assessment, 25 mpk: p.o. 25 mg per kg per day for 7 days; for Dose limiting toxicity assessment, 25 mpk / Dose limiting toxicity assessment, 100 mpk / Dose limiting toxicity assessment, 750 mpk: mono-L-malic acid salts; for Dose limiting toxicity assessment, 100 mpk: p.o. 100 mg per kg per day for 7 days; for Dose limiting toxicity assessment, 750 mpk: p.o. 750 mg per kg per day for 7 days; for physical signs of toxicity: p.o. 100 mpk dose for 7 days. As to the method:
The observations summarized in Table 8 indicate that both Example 1 and Compound #290 have the same NO Effect Level in a Dose Limiting Toxicity assay in the rat (NOEL=100 mpk/day for 7 days for both) (Note 11), and would argue against the use of higher doses of Compound #290 to achieve the same plasma exposure as Example 1 in the clinic.
Example 1 and Compound #290 as their mono-L-malic acid salts were formulated in 0.5% Methocel and dosed p.o. at 25, 100 and 750 mg per k per day (free base equivalent) for 7 days (n=5 animals in each group). During the dosing period observation of any physical signs of toxicity were noted. Upon termination on day 8, a standard battery of blood chemistry and tissue analyses were performed and evaluated for significant effects compared to vehicle controls. […] At the 750 mpk dose level several adverse effects were observed including mortality (⅖ for Example 1 on Day 7 and 8 in the 750 mpk dose group; ⅕ on day 4 for Compound #290 in the 750 mpk dose group).

Data set [3] addresses T2, Human Leukocyte Elastase (HLE) (Homo sapiens, UniProt P08246).
T2 construct: The PMN lysates were prepared by isolating human neutrophils from whole blood; from tissue; host or cells: human neutrophils (PMN) isolated from whole blood, lysed by sonication in PBS
T2 sequence (P08246 30-267): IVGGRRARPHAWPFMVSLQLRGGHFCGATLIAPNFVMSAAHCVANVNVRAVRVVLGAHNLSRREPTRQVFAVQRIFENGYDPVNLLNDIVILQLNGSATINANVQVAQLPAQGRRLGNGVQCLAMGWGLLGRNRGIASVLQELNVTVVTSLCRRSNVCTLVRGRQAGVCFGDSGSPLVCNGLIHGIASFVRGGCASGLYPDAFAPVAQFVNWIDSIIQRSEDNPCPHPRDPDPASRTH
As to the kind of experiment: HLE time-dependent inactivation assay, PMN cell lysate source of HLE. The data set is classed as biochemical. The following applies: 3 nM, inhibitor 26.5 nM, substrate 1 mM. As to the method: As exemplified in Table 1, the Examples 1-6 of this application were determined to be potent, mechanism-based inactivators of Human Leukocyte Elastase (HLE) in two different in vitro time-dependent incubation assays. The two assays are described at the end of this Biological Data Section in Note 1. See the literature references in Note 2 for a discussion of the mechanism for this type of beta-lactam inactivation of HLE. Two sources of enzyme were used; either purified elastase or crude extracts of human polymorphonuclear leukocytes (PMN) containing elastase activity. […] For the compound of Example 1, the results were 638,000 M^−1 sec^−1 (average of n=3) and 809,000 M^−1 sec^−1 (n=4), respectively, and for Example 3, 804,000 M^−1 sec^−1 (average of n=4) and 952,000 M^−1 sec^−1 (n=5). […] Note that in this assay, head-to-head comparisons are particularly valuable.
Note 1: Enzyme Assays for the Inhibition of Human Polymorphonuclear Leukocyte Elastase Via Hydrolysis of N-Methyoxysuccinyl-alanyl-alanyl-prolylalanine-p-nitroanilide Reagent.
Prepare substrate by first dissolving in DMSO to 30 mg/ml (50 mM). Further dilute the substrate to 10 mM and add 25 μl to a final volume of 250 μl for a final concentration of 1 mM in the assay.
Prepare the enzyme in TES Buffer (0.045M TES (N-tris[hydroxymethyl]methyl-2-mino-ethanesulfonic acid), 0.45 M NaCl, pH 7.5.). Two sources of enzyme were used; either crude extracts of human polymorphonuclear leukocytes (PMN) containing elastase activity or purified elastase. The PMN lysates were prepared by isolating human neutrophils from whole blood after dextran sedimentation, ficoll density separation and red blood cell lysis. The neutrophils were lysed in PBS with sonciation and the concentration of active enzyme was determined by utilizing a standard curve of purified enzyme. For the purified elastase, the enzyme was resuspended at 10 mg/ml (˜340 μM) in 0.02M NaOAc, 50% glycerol. For both the PMN lysate and purified enzyme, a further dilution of enzyme was made to 30 nM and 25 μl was added to a final volume of 250 μl. The final concentration of enzyme in the assay was 3 nM.
The inhibitors to be tested were dissolved in DMSO at 10 mM. Directly before use, the inhibitors were further diluted into TES Buffer to 265 nM and […] was added to a final volume of 250 μl. The final concentration of inhibitor in the assay was 26.5 nM.
In a 96-well plate (flat bottom, polystyrene) 175 μl TES Buffer, 25 μl substrate, 25 μl inhibitor and 25 μl enzyme were added. After thoroughly mixing, the plate was then read in a spectrophotometer at 410 nm for 30 minutes counting every 10 seconds. Results were expressed as Kinact/Ki which is the second order rate constant in per mole per second for inactivation of the enzyme.

pIC50: −log10 of the molar value.

The pIC50 is −log10 of the IC50, conventionally taken in molar units. On to `CCC[C@@H](NC(=O)N1C(=O)C(CC)(CC)[C@@H]1Oc1ccc(C(=O)N(C)CCN(C)C)cc1)c1ccc(OC)cc1` [Compound #290, reference compound], for which, in data set [1], the “% Left @ 30 min” value is 93% and the “% Left @ 60 min” value was 88%. The pIC50 on CYP2C9 was less than 5.10. In data set [2], the mortality result was “⅕”; the “NO Effect Level (NOEL)” value is listed as 100 mpk/day; the “Dose limiting toxicity assessment, 750 mpk” value is reported as “Significant toxicity observed”; the “physical signs of toxicity” value is on record as “salivation”. For the same compound, the “Dose limiting toxicity assessment, 25 mpk” value in data set [2] (25 mg/kg) is “no adverse effects”. Further, in data set [2] (100 mg/kg), the “Dose limiting toxicity assessment, 100 mpk” value is listed as “no adverse effects”.
As a reminder, the kinact/KI is the maximal inactivation rate divided by the concentration that gives half of it. `CCC[C@@H](NC(=O)N1C(=O)C(CC)(CC)[C@@H]1Oc1ccc(C(=O)N(CC)CCN(C)C)cc1)c1ccc(OC(F)(F)F)cc1` [Example 1, 2-(S)-[4-(((2-(Dimethylamino)ethyl)ethylamino)carbonyl)phenoxy]-3,3-diethyl-N-[1-(R)-(4-(trifluoromethoxy)phenyl)butyl]-4-oxo-1-azetidinecarboxamide]: the kinact/KI in data set [3] is 809000 M⁻¹ s⁻¹. In addition, in data set [1], the “% Left @ 30 min” value is 92% and the “% Left @ 60 min” value stood at 92%. For the same compound, at CYP2C9, the pIC50 was less than 5.10. Further, in data set [2], the mortality result is “⅖”; the “NO Effect Level (NOEL)” value came out at 100 mpk/day; the “Dose limiting toxicity assessment, 750 mpk” value was “Significant toxicity observed”; the “physical signs of toxicity” value is “salivation”. Also, in data set [2] (25 mg/kg), the “Dose limiting toxicity assessment, 25 mpk” value is listed as “no adverse effects”. The “Dose limiting toxicity assessment, 25 mpk” value in data set [2] (listed as xample 1, 25 mg/kg) is “No effects”. The “Dose limiting toxicity assessment, 100 mpk” value in data set [2] (100 mg/kg) was “no adverse effects”. In addition, the “Dose limiting toxicity assessment, 100 mpk” value in data set [2] (listed as xample 1, 100 mg/kg) is on record as “No effects”.
On to `CCC[C@@H](NC(=O)N1C(=O)C(CC)(CC)[C@@H]1Oc1ccc(C(=O)N(CC)CCN(C)C)cc1)c1ccc(C(F)(F)F)cc1` [Example 3, 2-(S)-[4-(((2-(Dimethylamino)ethyl)ethylamino)carbonyl)phenoxy]-3,3-diethyl-N-[1-(R)-(4-(trifluoromethyl)phenyl)butyl]-4-oxo-1-azetidinecarboxamide], for which the kinact/KI in data set [3] turned out to be 952000 M⁻¹ s⁻¹.
